Laboratory results taken from patent US20210330611A1, “THERAPY FOR NEUROLOGICAL DISEASES/DISORDERS” (priority 2020, published 2021).
Like-named read-outs stand apart in the source and are kept apart here.

Experiments:
[1] = system: fibrin- and LPS-induced microglia activation; test: cells; assay type: cell-based, rat
[2] = system: fibrin-induced microglia activation; test: Image-based assay of fibrin-induced microglia activation (HTS and dose response); assay type: cell-based, rat; settings: for inhibition at 10 µM: Rattus norvegicus, Microglia, read-out: Fibrin % inhibition
primary rat microglia [3] = test: Cell toxicity (dead cells, size <150 μm2) in LPS assay; settings: for IC50: read-out: Cell Toxicity IC50 (uM) [LPS assay]
[4] = system: LPS-induced microglia activation; test: Image-based assay of LPS-induced microglia activation (HTS and dose response); assay type: cell-based, rat; settings: for inhibition at 10 µM: Rattus norvegicus, Microglia, read-out: LPS % inhibition
primary rat microglia [5] = test: Cell toxicity (dead cells, size <150 μm2) in coated fibrin (cFib) assay; settings: for IC50: read-out: Cell Toxicity IC50 (uM) [cFib assay];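 as to Fibrin % cell toxicity: share of dead cells sized under 150 µm2 at 10 µM in fibrin-stimulated microglia HTS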
[6] = quadrant by fibrin and LPS inhibition in HTS of 1907 compounds
[7] = primary microglia HTS, fibrin stimulation, activation = cell size >800 μm2
[8] = primary microglia HTS, LPS stimulation, toxicity = cell size <150 μm2
[9] = 48 h, primary microglia HTS, LPS stimulation, activation = cell size >800 μm2
[10] = primary microglia HTS, fibrin stimulation, toxicity = cell size <150 μm2
[11] = primary HTS, 10 μM, fibrin-stimulated primary microglia
[12] = primary HTS, 10 μM, LPS assay, dead cells size <150 μm2
[13] = primary HTS, 10 μM, LPS-stimulated primary microglia
[14] = primary HTS, 10 μM, fibrin assay, dead cells size <150 μm2
[15] = HTS of 1907 compounds, quadrant by fibrin and LPS inhibition
[16] = primary microglia HTS, fibrin stimulation, increased cell size (>800 μm^2) as marker of activation
[17] = primary microglia HTS, LPS stimulation, decreased size (<150 μm^2) as marker of toxicity
[18] = primary microglia HTS, fibrin stimulation, decreased size (<150 μm^2) as marker of toxicity
[19] = 48 h, primary microglia HTS, LPS stimulation, increased cell size (>800 μm^2) as marker of activation
[20] = primary microglia HTS, 10 μM, fibrin-stimulated, cell size >800 μm^2 as marker of activation
[21] = primary microglia HTS, 10 μM, LPS assay, cell size <150 μm^2 as marker of toxicity
[22] = primary microglia HTS, 10 μM, LPS-stimulated, cell size >800 μm^2 as marker of activation
[23] = primary microglia HTS, 10 μM, fibrin assay, cell size <150 μm^2 as marker of toxicity

COc1ccccc1OCC(O)CO (stereo not drawn) [Guaifenesin]
Quadrant (FIG. 5b) [1, 6]: Q4
inhibition at 10 µM [2, 7]: -15%
LPS % cell toxicity (primary rat microglia [3]; [8]): 0%
inhibition at 10 µM [4, 9]: 11%
Fibrin % cell toxicity (primary rat microglia [5]; [10]): 0%

CO/N=C(\C(=O)N[C@@H]1C(=O)N2C(C(=O)OC(C)OC(C)=O)=C(COC(N)=O)CS[C@H]12)c1ccco1 (stereo partly drawn) [Cefuroxime Axetil]
Quadrant (FIG. 5b) ([1]; primary HTS, 10 μM): Q4
inhibition at 10 µM [2, 11]: 17%
LPS % cell toxicity (primary rat microglia [3]; [12]): 0%
inhibition at 10 µM [4, 13]: 13%
Fibrin % cell toxicity (primary rat microglia [5]; [14]): 1%

Cl.N[C@H]1C(O)O[C@H](CO)[C@@H](O)[C@@H]1O (stereo partly drawn) [Glucosamine Hydrochloride]
Quadrant (FIG. 5b) [1, 6]: Q4
inhibition at 10 µM [2, 7]: -2%
LPS % cell toxicity (primary rat microglia [3]; [8]): 0%
inhibition at 10 µM [4, 9]: 19%
Fibrin % cell toxicity (primary rat microglia [5]; [10]): 1%

Gentamicin sulfate [reference compound]
Hit ([1]; HTS hit classification): HIT (Hits were defined as molecules that exhibited greater than 50% inhibition of either fibrin or LPS activation)
Quadrant (FIG. 5b) [1, 15]: Q2
Quadrant (FIG. 5b) ([1]; Table 1, screen at 10 μM): Q2
Cherry-picked Hit (Suppl. Table 7) ([1]; Table 3): HIT (Hits were defined as molecules that exhibited greater than 50% inhibition of either fibrin or LPS activation)
Quadrant (FIG. 5b) ([1]; Table 3, screen at 10 μM): Q2
Cherry-picked Hit (Suppl. Table 7) ([1]; hit classification in microglia HTS): HIT (Hits were defined as molecules that exhibited greater than 50% inhibition of either fibrin or LPS activation)
Quadrant (FIG. 5b) [1, 6]: Q2
Fibrin Selectivity [2]: 5
Fibrin Selectivity (LOG10) [2]: 0.71
IC50 ([2]; Table 1, dose response 0.001-20 μM, triplicates, primary rat microglia, 48 h, read-out: Fibrin IC50): 4 µM
IC50 ([2]; Table 3, read-out: Fibrin IC50 (uM) (Suppl. Table 7)): 4 µM
IC50 ([2]; dose response, fibrin-induced microglia activation, read-out: Fibrin IC50): 4 µM
IC50 ([2]; fibrin-induced microglia activation, dose response, read-out: Fibrin IC50 (uM) (Suppl. Table 7)): 4 µM
Fibrin % inhibition [2, 16]: 105%
LPS % cell toxicity (primary rat microglia [3]; [17]): 4%
IC50 (primary rat microglia [3]; LPS assay): > 20 µM
IC50 (primary rat microglia [3]; Table 3): > 20 µM
IC50 ([4]; LPS-induced microglia activation, dose response, read-out: LPS IC50 (uM) (Suppl. Table 7)): > 20 µM
IC50 ([4]; Table 1, dose response 0.001-20 μM, triplicates, primary rat microglia, 48 h, read-out: LPS IC50): > 20 µM
IC50 ([4]; Table 3, read-out: LPS IC50 (uM) (Suppl. Table 7)): > 20 µM
IC50 ([4]; dose response, LPS-induced microglia activation, read-out: LPS IC50): > 20 µM
LPS % inhibition ([4]; primary microglia HTS, LPS stimulation, increased cell size (>800 μm^2) as marker of activation): 101%
Fibrin % cell toxicity (primary rat microglia [5]; [18]): 1%
IC50 (primary rat microglia [5]; Table 3): > 20 µM
IC50 (primary rat microglia [5]; cFib assay): > 20 µM

Cc1cc2c(OCC(CNC(C)(C)C)OC(=O)c3ccccc3)cccc2[nH]1 (stereo not drawn) [Bopindolol]
Quadrant (FIG. 5b) [1, 6]: Q2
inhibition at 10 µM [2, 16]: 105%
LPS % cell toxicity (primary rat microglia [3]; [17]): 2%
inhibition at 10 µM [4, 19]: 81%
Fibrin % cell toxicity (primary rat microglia [5]; [18]): 6%

CNS(=O)(=O)Cc1ccc2[nH]cc(CCN(C)C)c2c1 [Sumatriptan]
Quadrant (FIG. 5b) [1, 15]: Q4
inhibition at 10 µM [2, 20]: -7%
LPS % cell toxicity (primary rat microglia [3]; [21]): 0%
inhibition at 10 µM [4, 22]: 8%
Fibrin % cell toxicity (primary rat microglia [5]; [23]): 1%

CC(C)(Oc1ccc(CCNC(=O)c2ccc(Cl)cc2)cc1)C(=O)O [Bezafibrate]
Quadrant (FIG. 5b) ([1]; primary HTS, 10 μM): Q4
inhibition at 10 µM [2, 11]: -4%
LPS % cell toxicity (primary rat microglia [3]; [12]): 0%
inhibition at 10 µM [4, 13]: 18%
Fibrin % cell toxicity (primary rat microglia [5]; [14]): 0%

O=C(NC(=O)c1c(F)cccc1F)Nc1cc(Cl)c(OC(F)(F)C(F)C(F)(F)F)cc1Cl (stereo not drawn) [Lufenuron]
Quadrant (FIG. 5b) [1, 6]: Q4
inhibition at 10 µM [2, 16]: 15%
LPS % cell toxicity (primary rat microglia [3]; [17]): 0%
inhibition at 10 µM [4, 19]: 13%
Fibrin % cell toxicity (primary rat microglia [5]; [18]): 1%

CCN(CCO)CCCC(C)Nc1ccnc2cc(Cl)ccc12 (stereo not drawn) [Hydroxychloroquine]
Quadrant (FIG. 5b) [1, 6]: Q4
inhibition at 10 µM [2, 7]: 35%
LPS % cell toxicity (primary rat microglia [3]; [8]): 0%
inhibition at 10 µM [4, 9]: 17%
Fibrin % cell toxicity (primary rat microglia [5]; [10]): 1%

Oc1noc2c1CCNC2 [Gaboxadol]
Quadrant (FIG. 5b) [1, 6]: Q4
inhibition at 10 µM [2, 7]: -43%
LPS % cell toxicity (primary rat microglia [3]; [8]): 0%
inhibition at 10 µM [4, 9]: 3%
Fibrin % cell toxicity (primary rat microglia [5]; [10]): 0%

Cc1cc2nc3ccc(N(C)C)cc3[s+]c2cc1N [Tolonium Chloride]
Quadrant (FIG. 5b) [1, 15]: Q4
inhibition at 10 µM [2, 20]: -4%
LPS % cell toxicity (primary rat microglia [3]; [21]): 1%
inhibition at 10 µM [4, 22]: 43%
Fibrin % cell toxicity (primary rat microglia [5]; [23]): 1%

Cc1ccc(S(=O)(=O)[N-]Cl)cc1.[Na+] [Chloramine-t]
Quadrant (FIG. 5b) ([1]; primary HTS, 10 μM): Q4
Fibrin % inhibition [2, 11]: 4%
LPS % cell toxicity (primary rat microglia [3]; [12]): 0%
LPS % inhibition [4, 13]: 11%
Fibrin % cell toxicity (primary rat microglia [5]; [14]): 1%

C#C[C@]1(OC(C)=O)CC[C@H]2[C@@H]3CCC4=CC(=O)CC[C@@H]4[C@H]3CC[C@@]21C [Norethindrone Acetate]
Quadrant (FIG. 5b) [1, 6]: Q4
inhibition at 10 µM [2, 16]: -5%
LPS % cell toxicity (primary rat microglia [3]; [17]): 0%
inhibition at 10 µM [4, 19]: 18%
Fibrin % cell toxicity (primary rat microglia [5]; [18]): 1%

C=CCC1(C(C)CCC)C(=O)N=C(S)NC1=O (stereo not drawn) [Thiamylal]
Quadrant (FIG. 5b) [1, 15]: Q4
inhibition at 10 µM [2, 20]: -1%
LPS % cell toxicity (primary rat microglia [3]; [21]): 0%
inhibition at 10 µM [4, 22]: 26%
Fibrin % cell toxicity (primary rat microglia [5]; [23]): 0%

Cc1c(OCC(F)(F)F)ccnc1C[S+]([O-])c1nc2ccccc2[nH]1 (stereo not drawn) [Lansoprazole]
Quadrant (FIG. 5b) [1, 6]: Q4
inhibition at 10 µM [2, 7]: 3%
LPS % cell toxicity (primary rat microglia [3]; [8]): 0%
inhibition at 10 µM [4, 9]: 15%
Fibrin % cell toxicity (primary rat microglia [5]; [10]): 0%

CNC1(c2ccccc2Cl)CCCCC1=O (stereo not drawn) [Ketamine]
Quadrant (FIG. 5b) [1, 6]: Q4
inhibition at 10 µM [2, 7]: -86%
LPS % cell toxicity (primary rat microglia [3]; [8]): 0%
inhibition at 10 µM [4, 9]: -2%
Fibrin % cell toxicity (primary rat microglia [5]; [10]): 1%

CCN1CCC[C@H]1CNC(=O)c1cc(S(N)(=O)=O)ccc1OC [Levosulpiride]
Quadrant (FIG. 5b) [1, 6]: Q4
inhibition at 10 µM [2, 7]: -36%
LPS % cell toxicity (primary rat microglia [3]; [8]): 0%
inhibition at 10 µM [4, 9]: 18%
Fibrin % cell toxicity (primary rat microglia [5]; [10]): 1%

C=CC1=C(C(=O)O)N2C(=O)[C@@H](NC(=O)/C(=N\O)c3csc(N)n3)[C@H]2SC1 [Cefdinir]
Quadrant (FIG. 5b) ([1]; primary HTS, 10 μM): Q4
inhibition at 10 µM [2, 11]: -9%
LPS % cell toxicity (primary rat microglia [3]; [12]): 0%
inhibition at 10 µM [4, 13]: 16%
Fibrin % cell toxicity (primary rat microglia [5]; [14]): 1%

O=c1[nH]c(=O)c2ccccc2o1 [Carsalam]
Quadrant (FIG. 5b) ([1]; primary HTS, 10 μM): Q4
inhibition at 10 µM [2, 11]: -7%
LPS % cell toxicity (primary rat microglia [3]; [12]): 1%
inhibition at 10 µM [4, 13]: 11%
Fibrin % cell toxicity (primary rat microglia [5]; [14]): 0%

COc1cnc(NS(=O)(=O)c2ccc(N)cc2)nc1 [Sulfameter]
Quadrant (FIG. 5b) [1, 15]: Q4
inhibition at 10 µM [2, 20]: 4%
LPS % cell toxicity (primary rat microglia [3]; [21]): 0%
inhibition at 10 µM [4, 22]: 11%
Fibrin % cell toxicity (primary rat microglia [5]; [23]): 1%
